Measured values as given in patent US6743812B1, “Pharmaceutical compositions and methods for use” (Targacept, Inc., priority 2000, dated 2004).

Key:
CNS nicotinic receptors = CNS nicotinic receptors (Rattus norvegicus, UniProt P09483+P12390); test: Determination of binding to relevant receptor sites; details: binding to certain CNS nicotinic receptors; read-out: Ki (inhibition constant, calculated from IC50 by the method of Cheng et al.)
Procedure: Determination of Binding to Relevant Receptor Sites
Binding of the compounds to relevant receptor sites was determined in accordance with the techniques described in U.S. Pat. No. 5,597,919 to Dull et al. Inhibition constants (Ki values), reported in nM, were calculated from the IC50 values using the method of Cheng et al., Biochem, Pharnacol. 22:3099 (1973).

[1] = Physical and chemical stability of salt; assay type: physicochemical
Water solubility of salt = assay type: physicochemical
[2] = Water absorption (hygroscopicity) of salts; assay type: physicochemical

CNS nicotinic receptors, sequence (P09483 31-630): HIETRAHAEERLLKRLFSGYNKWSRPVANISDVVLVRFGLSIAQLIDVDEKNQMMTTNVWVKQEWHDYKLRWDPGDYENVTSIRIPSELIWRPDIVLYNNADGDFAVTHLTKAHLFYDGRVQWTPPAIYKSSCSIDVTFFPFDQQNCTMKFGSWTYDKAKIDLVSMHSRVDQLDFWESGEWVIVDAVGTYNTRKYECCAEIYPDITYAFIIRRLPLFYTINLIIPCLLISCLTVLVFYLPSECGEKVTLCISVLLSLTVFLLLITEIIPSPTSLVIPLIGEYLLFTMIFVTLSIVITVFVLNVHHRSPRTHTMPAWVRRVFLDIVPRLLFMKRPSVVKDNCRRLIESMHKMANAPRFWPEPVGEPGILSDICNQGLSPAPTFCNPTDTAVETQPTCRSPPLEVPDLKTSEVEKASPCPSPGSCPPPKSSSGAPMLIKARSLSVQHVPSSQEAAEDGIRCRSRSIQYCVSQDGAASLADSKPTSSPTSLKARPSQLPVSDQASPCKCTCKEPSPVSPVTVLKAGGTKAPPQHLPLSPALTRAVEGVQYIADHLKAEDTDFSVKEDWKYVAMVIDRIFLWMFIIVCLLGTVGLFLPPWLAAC
CNS nicotinic receptors, sequence (P12390 25-500): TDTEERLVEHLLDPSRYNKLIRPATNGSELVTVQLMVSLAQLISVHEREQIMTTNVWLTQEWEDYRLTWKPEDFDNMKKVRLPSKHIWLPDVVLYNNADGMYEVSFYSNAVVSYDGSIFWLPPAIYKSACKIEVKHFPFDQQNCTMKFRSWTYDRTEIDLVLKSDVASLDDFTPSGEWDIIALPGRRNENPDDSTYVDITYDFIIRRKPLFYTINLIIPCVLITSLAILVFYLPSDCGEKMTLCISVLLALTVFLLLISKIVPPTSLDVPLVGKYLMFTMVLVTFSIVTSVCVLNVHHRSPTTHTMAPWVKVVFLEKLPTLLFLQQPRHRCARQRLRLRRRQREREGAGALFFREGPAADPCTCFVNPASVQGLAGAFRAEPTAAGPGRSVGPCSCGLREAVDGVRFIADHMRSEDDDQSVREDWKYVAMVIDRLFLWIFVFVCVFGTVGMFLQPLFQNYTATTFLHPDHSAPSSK

| SMILES | Ki (CNS nicotinic receptors) | stability [1] | water solubility (Water solubility of salt) | amount of water absorbed ([2]; room temperature and 90% relative humidity) | hygroscopicity compared with other salts ([2]; single salt: versus corresponding salt derived from galactaric acid (mucic acid)) | amount of water absorbed ([2]; 40° C. and 70% relative humidity) |
| --- | --- | --- | --- | --- | --- | --- |
| CN[C@@H](C)C/C=C/c1cncc(OC(C)C)c1 [Sample No. 1, (2S)-(4E)-N-methyl-5-[3-(5-isopropoxypyridin)yl]-4-penten-2-amine hemi-(di-p-toluoyl-L-tartrate)] | 6 nM |  |  |  |  |  |
| CN[C@@H](C)C/C=C/c1cncc(OC(C)C)c1 [Sample No. 2, (2S)-(4E)-N-methyl-5-[3-(5-isopropoxypyridin)yl]-4-penten-2-amine hemi-(di-p-toluoyl-D-tartrate)] | 5 nM | physically and chemically stable | water soluble | 3.2% | less hygroscopic |  |
| CN[C@@H](C)C/C=C/c1cncc(OC(C)C)c1.CN[C@@H](C)C/C=C/c1cncc(OC(C)C)c1.O=C(O)[C@@H](O)[C@H](O)[C@H](O)[C@@H](O)C(=O)O [hemigalactarate of (2S)-(4E)-N-methyl-5-[3-(5-isopropoxypyridin)yl)]-4-penten-2-amine, reference compound] |  |  |  |  |  | 11.8% |
